For series [1], the system named is Mycobacterium tuberculosis. Description: Antitubercular activity against Mycobacterium tuberculosis H37Rv assessed as inhibition of colonies after 30 days by agar microdilution method. The class given is functional.
The next series has as its system Staphylococcus aureus. The series can be described thus: Antibacterial activity against Staphylococcus aureus assessed as inhibition of visible growth after 48 hrs by agar dilution method. The class given is functional. Background: In agar dilution, organisms are placed on agar that contains the substance at set levels.
The next series relates to Escherichia coli. Description: Antibacterial activity against Escherichia coli assessed as inhibition of visible growth after 48 hrs by agar dilution method. The class given is functional.
Another series concerns Streptococcus pneumoniae. The series can be described thus: Antibacterial activity against Streptococcus pneumoniae assessed as inhibition of visible growth after 48 hrs by agar dilution method. In kind it is functional.
The subject of another series is Candida albicans. Description: Antifungal activity against Candida albicans assessed as inhibition of visible growth after 48 hrs by agar dilution method. The class given is functional.
The next series relates to Aspergillus fumigatus. Description: Antifungal activity against Aspergillus fumigatus assessed as inhibition of visible growth after 48 hrs by agar dilution method. In kind it is functional.
The next series relates to Aspergillus niger. The series can be described thus: Antifungal activity against Aspergillus niger assessed as inhibition of visible growth after 48 hrs by agar dilution method. In kind it is functional.
A short description of series [2]: Cytotoxicity against african green monkey Vero C1008 cells at 0.01 to 0.1 ug/ml by neutral red uptake assay. The class given is cell-based. Conditions: chlorocebus sabaeus.

SMILES strings stand for the structures. Converted amounts (≈) assume the structure as drawn.

Broadly, the MIC is the smallest concentration in the dilution series that meets the test's criterion for growth inhibition. As to `O=C1C(Cl)C(c2ccccc2)N1/N=C/CCn1nnc2ccccc21` (configuration not stated), the MIC was over 12.5 µg/mL in series [1]; 1 µg/mL (≈ 2.83 µM) in the series on Staphylococcus aureus; 1 µg/mL (≈ 2.83 µM) in the series with Escherichia coli; 0.5 µg/mL (≈ 1.41 µM) in the series with Streptococcus pneumoniae; 1 µg/mL (≈ 2.83 µM) in the series on Candida albicans; 1 µg/mL (≈ 2.83 µM) with Aspergillus fumigatus. Moreover, in the series on Aspergillus niger, the MIC is 1 µg/mL (≈ 2.83 µM). The Activity entry in series [2] was “Non-toxic”.
Regarding `O=C1C(Cl)C(c2ccccc2Cl)N1/N=C/CCn1nnc2ccccc21` (configuration not stated), the MIC in series [1] worked out at 3.12 µg/mL (≈ 8.05 µM); in the series on Staphylococcus aureus it was 0.5 µg/mL (≈ 1.29 µM); in the series on Escherichia coli it was 0.1 µg/mL (≈ 0.258 µM); in the series with Streptococcus pneumoniae, 0.1 µg/mL (≈ 0.258 µM); with Candida albicans, 1 µg/mL (≈ 2.58 µM); in the series with Aspergillus fumigatus, 0.5 µg/mL (≈ 1.29 µM). For the same molecule, the MIC in the series on Aspergillus niger worked out at 0.5 µg/mL (≈ 1.29 µM).
As for `O=C1C(Cl)C(c2ccc(Cl)cc2)N1/N=C/CCn1nnc2ccccc21` (configuration not stated), the MIC is over 3.12 µg/mL in series [1]; 0.1 µg/mL (≈ 0.258 µM) in the series with Staphylococcus aureus; 0.1 µg/mL (≈ 0.258 µM) in the series with Escherichia coli; 0.5 µg/mL (≈ 1.29 µM) in the series with Streptococcus pneumoniae; 0.5 µg/mL (≈ 1.29 µM) in the series with Candida albicans; 0.5 µg/mL (≈ 1.29 µM) in the series on Aspergillus fumigatus. In addition, the MIC in the series with Aspergillus niger was 1 µg/mL (≈ 2.58 µM).
As for `O=C1C(Cl)C(c2ccccc2Br)N1/N=C/CCn1nnc2ccccc21` (configuration not stated), the MIC was over 3.12 µg/mL in series [1]; 0.1 µg/mL (≈ 0.231 µM) with Staphylococcus aureus; 0.1 µg/mL (≈ 0.231 µM) in the series on Escherichia coli; 0.5 µg/mL (≈ 1.16 µM) with Streptococcus pneumoniae; 1 µg/mL (≈ 2.31 µM) in the series on Candida albicans; 0.5 µg/mL (≈ 1.16 µM) in the series with Aspergillus fumigatus. Also, in the series on Aspergillus niger, the MIC came to 0.5 µg/mL (≈ 1.16 µM).
For the molecule `O=C1C(Cl)C(c2cccc(Br)c2)N1/N=C/CCn1nnc2ccccc21` (configuration not stated), the MIC in series [1] is 6.25 µg/mL (≈ 14.4 µM); with Staphylococcus aureus, 0.1 µg/mL (≈ 0.231 µM); in the series on Escherichia coli, 0.1 µg/mL (≈ 0.231 µM); in the series on Streptococcus pneumoniae it was 0.1 µg/mL (≈ 0.231 µM); in the series on Candida albicans it was 0.5 µg/mL (≈ 1.16 µM); with Aspergillus fumigatus, 0.1 µg/mL (≈ 0.231 µM). Besides, in the series with Aspergillus niger, the MIC was determined as 0.1 µg/mL (≈ 0.231 µM).
For `O=C1C(Cl)C(c2ccccc2[N+](=O)[O-])N1/N=C/CCn1nnc2ccccc21` (configuration not stated), the MIC is over 3.12 µg/mL in series [1]; 0.5 µg/mL (≈ 1.25 µM) in the series on Staphylococcus aureus; 0.5 µg/mL (≈ 1.25 µM) in the series with Escherichia coli; 0.1 µg/mL (≈ 0.251 µM) in the series with Streptococcus pneumoniae; 0.1 µg/mL (≈ 0.251 µM) in the series on Candida albicans; 0.1 µg/mL (≈ 0.251 µM) with Aspergillus fumigatus. Moreover, the MIC in the series with Aspergillus niger worked out at 0.1 µg/mL (≈ 0.251 µM).
As for `O=C1C(Cl)C(c2ccc([N+](=O)[O-])cc2)N1/N=C/CCn1nnc2ccccc21` (configuration not stated), the MIC in series [1] was over 1.56 µg/mL; with Staphylococcus aureus it was 0.1 µg/mL (≈ 0.251 µM); in the series on Escherichia coli, 0.5 µg/mL (≈ 1.25 µM); with Streptococcus pneumoniae, 0.5 µg/mL (≈ 1.25 µM); in the series on Candida albicans it was 0.1 µg/mL (≈ 0.251 µM); with Aspergillus fumigatus, 0.5 µg/mL (≈ 1.25 µM). Also, the MIC in the series with Aspergillus niger came to 0.5 µg/mL (≈ 1.25 µM).
Regarding `COc1ccccc1C1C(Cl)C(=O)N1/N=C/CCn1nnc2ccccc21` (configuration not stated), the MIC in series [1] is over 6.25 µg/mL; in the series with Staphylococcus aureus, 1 µg/mL (≈ 2.61 µM); in the series with Escherichia coli, 2 µg/mL (≈ 5.21 µM); with Streptococcus pneumoniae, 0.5 µg/mL (≈ 1.3 µM); with Candida albicans it was 0.1 µg/mL (≈ 0.261 µM); with Aspergillus fumigatus it was 0.1 µg/mL (≈ 0.261 µM). For the same molecule, the MIC with Aspergillus niger came out at 0.1 µg/mL (≈ 0.261 µM).
Turning to `COc1ccc(C2C(Cl)C(=O)N2/N=C/CCn2nnc3ccccc32)cc1` (configuration not stated), the MIC in series [1] is over 12.5 µg/mL; with Staphylococcus aureus it was 1 µg/mL (≈ 2.61 µM); in the series with Escherichia coli, 1 µg/mL (≈ 2.61 µM); in the series with Streptococcus pneumoniae it was 0.5 µg/mL (≈ 1.3 µM); with Candida albicans, 0.1 µg/mL (≈ 0.261 µM); in the series on Aspergillus fumigatus it was 0.1 µg/mL (≈ 0.261 µM). Further, the MIC in the series with Aspergillus niger amounted to 0.1 µg/mL (≈ 0.261 µM).
Turning to `CC[C@@H](CO)NCCN[C@@H](CC)CO` [ETHAMBUTOL], the MIC in series [1] is 1 µg/mL (≈ 4.89 µM).
Turning to `Clc1ccc(COC(Cn2ccnc2)c2ccc(Cl)cc2Cl)c(Cl)c1` (configuration not stated) [MICONAZOLE], the MIC in the series with Candida albicans, in the series with Aspergillus fumigatus and in the series with Aspergillus niger was 0.1 µg/mL (≈ 0.24 µM) throughout.
Turning to `CC1COc2c(N3CCN(C)CC3)c(F)cc3c(=O)c(C(=O)O)cn1c23` (configuration not stated) [OFLOXACIN], the MIC in the series on Staphylococcus aureus, in the series with Escherichia coli and with Streptococcus pneumoniae was 0.1 µg/mL (≈ 0.277 µM) each time.
For the molecule `CN[C@@H]1[C@H](O[C@H]2[C@H](O[C@H]3[C@H](O)[C@@H](O)[C@H](N=C(N)N)[C@@H](O)[C@@H]3N=C(N)N)O[C@@H](C)[C@]2(O)C=O)O[C@@H](CO)[C@H](O)[C@H]1O` [STREPTOMYCIN], the MIC in series [1] is 4 µg/mL (≈ 6.88 µM).
